This note sets out measurements from patent publication US10208056B2, “Condensed tricyclic compounds as protein kinase inhibitors” (FUNDACIÓN DEL SECTOR PÚBLICO ESTATAL CENTRO NACIONAL DE …, priority 2015, dated 2019).

In one experiment the test system is MDA-MB-231. In words: In vitro cell proliferation assay (CellTiter-Glo), MDA-MB-231. The experiment is classed as cell-based. The conditions noted are these: Homo sapiens, MDA-MB-231, growth inhibition, read-out: GI50 MDA-MB-231. A general note: In ATP-based viability assays light output follows the ATP content of the culture.
In the next experiment the test system is SW620. The experiment can be described thus: In vitro cell proliferation assay (CellTiter-Glo), SW620. It counts as cell-based, human. Particulars: Homo sapiens, SW-620, growth inhibition, read-out: GI50 SW620.
The test system of experiment [1] is SW620 cells. The experiment can be described thus: Cell cycle assay (propidium iodine, flow cytometry). The experiment is classed as cell-based, human. The conditions noted are these: SW620, 24 h, increasing concentrations. As to the method:
Compounds can be screened for their ability to affect the cell cycle using a propidium iodine assay and analysis by flow cytometry. SW620 are plated at 500000 cells per well in 6-well plates (Solmeglas 13118) in RPMI media (Sigma-Aldrich R6504) supplemented with 10% foetal bovine serum (Sigma-Aldrich F7524), Penicillin/Streptomycin solution diluted 1:100 (Gibco 15070-063), and fungizone (Gibco, 15290-018), and allowed to adhere overnight at 37° C. in 5% CO2. Cells are then treated 24 h hours with compounds at final concentration of 5, 2.5, 1 and 0.5 μM. Cells are collected by trypsinization and centrifugation at 1250 rpm and washed with PBS (Sigma Ref. D8537). Cells are fixated with 70% cold ethanol (Merck Ref 100983)) and kept at 4° C. at least for 12 hours. After centrifugation, cells are washed with PBS and DNA is stained with a solution of 0.2 mg/mL RNAase (Quiagen Ref 1007885) and 0.02 mg/mL propidium iodine (Sigma Ref P4864). After 30 minutes incubation at room temperature in the dark cells are analyzed by FACSCalibur™ (BD biosciences) and Flowjo software.

In a further experiment the target is intracellular CDK8 (Homo sapiens (Human), UniProt P49336). In words: Endogenous phosphoSTAT1 inhibition in SW620 cells growing in 10% FBS. The experiment is classed as cell-based. The conditions noted are these: read-out: SW620 P-STAT1(S727). In a few lines: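 SW620 cells in 10% FBS treated 8 h with compound, then lysed and phospho-STAT1 measured relative to total STAT1.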

Experiment [2] relates to SW620 cells. In words: Colony formation assay. The experiment is classed as cell-based, human. The conditions noted are these: SW620 cells treated 11 days. As to the method:
The in vitro potency of the compounds was measured by colony formation assays. SW620 cells in logarithmic growth phase are plated at 800 cells per well in 6-well plates (Solmeglas 13118) in RPMI media (Sigma-Aldrich R6504) supplemented with 10% foetal bovine serum (Sigma-Aldrich F7524), Penicillin/Streptomycin solution diluted 1:100 (Gibco 15070-063), and fungizone (Gibco, 15290-018), and allowed to adhere overnight at 37° C. in 5% CO2. Compounds are then added to the cell media from a final concentration of 10 μM in 10-fold serial dilutions and the cells are incubated at 37° C. in 5% CO2. Every three days the medium is changed by fresh medium and compounds are added again. After 11 days, colonies are washed with PBS and fixed in 0.5% crystal violet (Sigma-Aldrich Ref. V5265), 6% glutaraldehide (Sigma-Aldrich Ref. G5882) for 30 minutes. After extensive washing, colonies are dissolved in 2 ml of 10% glacial acetic acid (Sigma-Aldrich Ref. 537020) and absorbance at 590 nm is measured in the Victor 1420 Multilabel Counter (Perkin Elmer). The absorbance in cells treated with DMSO is taken as hundred percent of proliferation. The percentage of proliferation is finally plotted against concentration for each compound and EC50s for colony formation inhibition are calculated using ActivityBase from IDBS.

Molecules are shown by their SMILES. Read-outs that look alike come from different tables or passages of the source.

Sequence of intracellular CDK8 (P49336 whole entry): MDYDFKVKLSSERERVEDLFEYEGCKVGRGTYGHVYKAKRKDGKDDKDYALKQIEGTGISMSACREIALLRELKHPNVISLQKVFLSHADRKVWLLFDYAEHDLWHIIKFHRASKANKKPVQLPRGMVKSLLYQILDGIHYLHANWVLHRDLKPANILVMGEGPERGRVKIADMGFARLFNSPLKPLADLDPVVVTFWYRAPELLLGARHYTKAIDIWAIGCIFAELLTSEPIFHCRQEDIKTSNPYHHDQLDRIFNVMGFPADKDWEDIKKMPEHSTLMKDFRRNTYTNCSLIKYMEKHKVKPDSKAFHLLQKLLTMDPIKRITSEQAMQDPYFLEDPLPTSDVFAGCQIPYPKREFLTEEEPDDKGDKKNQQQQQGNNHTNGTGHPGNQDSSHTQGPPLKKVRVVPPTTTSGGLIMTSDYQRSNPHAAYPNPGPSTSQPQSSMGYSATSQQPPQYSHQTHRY
Sequence of intracellular CDK8 (P24863 whole entry partner): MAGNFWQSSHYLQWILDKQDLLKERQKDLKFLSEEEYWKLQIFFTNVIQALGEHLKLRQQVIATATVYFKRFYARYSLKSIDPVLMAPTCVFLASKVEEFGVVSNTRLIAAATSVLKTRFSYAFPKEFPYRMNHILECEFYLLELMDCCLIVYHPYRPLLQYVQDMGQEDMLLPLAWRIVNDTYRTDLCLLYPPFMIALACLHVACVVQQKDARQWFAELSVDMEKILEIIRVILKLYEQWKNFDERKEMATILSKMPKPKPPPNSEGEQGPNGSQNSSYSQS
Sequence of intracellular CDK8 (Q93074 whole entry partner): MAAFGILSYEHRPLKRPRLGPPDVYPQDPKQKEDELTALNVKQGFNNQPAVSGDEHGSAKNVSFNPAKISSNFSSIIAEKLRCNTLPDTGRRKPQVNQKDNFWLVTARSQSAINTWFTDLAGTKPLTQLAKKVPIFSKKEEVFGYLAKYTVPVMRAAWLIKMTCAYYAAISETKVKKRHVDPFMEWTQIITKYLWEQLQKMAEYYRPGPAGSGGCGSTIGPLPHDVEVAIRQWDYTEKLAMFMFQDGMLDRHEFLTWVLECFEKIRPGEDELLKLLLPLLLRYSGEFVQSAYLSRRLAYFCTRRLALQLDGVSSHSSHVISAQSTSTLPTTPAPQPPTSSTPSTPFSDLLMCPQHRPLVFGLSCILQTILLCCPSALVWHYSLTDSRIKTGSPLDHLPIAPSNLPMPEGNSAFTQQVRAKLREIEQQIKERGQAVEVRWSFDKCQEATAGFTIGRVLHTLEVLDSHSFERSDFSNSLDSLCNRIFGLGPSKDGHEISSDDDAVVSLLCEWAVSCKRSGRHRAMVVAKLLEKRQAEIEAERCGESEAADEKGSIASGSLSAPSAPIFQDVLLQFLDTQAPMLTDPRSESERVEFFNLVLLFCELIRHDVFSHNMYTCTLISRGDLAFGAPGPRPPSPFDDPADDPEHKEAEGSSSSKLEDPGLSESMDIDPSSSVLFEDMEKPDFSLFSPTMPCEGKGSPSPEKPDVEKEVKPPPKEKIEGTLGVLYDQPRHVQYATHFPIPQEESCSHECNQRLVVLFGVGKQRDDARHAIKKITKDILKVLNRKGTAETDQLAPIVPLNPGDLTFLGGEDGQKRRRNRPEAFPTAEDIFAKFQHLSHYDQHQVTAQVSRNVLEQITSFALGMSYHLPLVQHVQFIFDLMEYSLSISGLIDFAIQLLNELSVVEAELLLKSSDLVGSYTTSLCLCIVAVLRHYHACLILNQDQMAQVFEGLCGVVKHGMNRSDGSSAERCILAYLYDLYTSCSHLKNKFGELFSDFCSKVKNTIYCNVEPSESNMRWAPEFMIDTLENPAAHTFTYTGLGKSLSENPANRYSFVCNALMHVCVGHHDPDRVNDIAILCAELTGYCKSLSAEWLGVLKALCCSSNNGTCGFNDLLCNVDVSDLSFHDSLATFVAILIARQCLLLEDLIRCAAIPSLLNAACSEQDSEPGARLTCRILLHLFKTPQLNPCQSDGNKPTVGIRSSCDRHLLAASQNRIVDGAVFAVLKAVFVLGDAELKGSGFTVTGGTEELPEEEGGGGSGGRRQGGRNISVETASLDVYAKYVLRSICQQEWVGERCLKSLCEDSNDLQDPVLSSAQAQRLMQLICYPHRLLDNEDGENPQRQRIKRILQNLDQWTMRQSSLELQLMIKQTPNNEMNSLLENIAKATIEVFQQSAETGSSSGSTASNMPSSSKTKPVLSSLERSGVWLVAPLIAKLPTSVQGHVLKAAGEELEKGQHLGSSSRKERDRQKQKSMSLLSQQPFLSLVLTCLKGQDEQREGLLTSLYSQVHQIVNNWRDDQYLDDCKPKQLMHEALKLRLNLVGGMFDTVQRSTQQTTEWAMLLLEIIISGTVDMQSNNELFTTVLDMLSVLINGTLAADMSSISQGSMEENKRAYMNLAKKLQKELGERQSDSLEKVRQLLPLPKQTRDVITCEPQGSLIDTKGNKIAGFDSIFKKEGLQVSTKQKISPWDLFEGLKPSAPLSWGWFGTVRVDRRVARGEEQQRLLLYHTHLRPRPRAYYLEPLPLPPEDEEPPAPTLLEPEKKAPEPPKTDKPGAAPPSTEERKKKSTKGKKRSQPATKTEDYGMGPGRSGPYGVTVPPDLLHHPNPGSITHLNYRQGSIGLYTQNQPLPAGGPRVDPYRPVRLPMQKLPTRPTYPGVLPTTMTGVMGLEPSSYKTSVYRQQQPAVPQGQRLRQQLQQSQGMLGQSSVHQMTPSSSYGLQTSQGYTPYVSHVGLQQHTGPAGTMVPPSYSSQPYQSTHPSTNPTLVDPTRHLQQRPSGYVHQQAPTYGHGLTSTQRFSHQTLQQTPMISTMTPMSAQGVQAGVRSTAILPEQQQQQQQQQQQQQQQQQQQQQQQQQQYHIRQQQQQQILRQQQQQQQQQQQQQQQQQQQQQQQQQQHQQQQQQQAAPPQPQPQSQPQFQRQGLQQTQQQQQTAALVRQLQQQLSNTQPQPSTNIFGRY

The term GI50 denotes the concentration that inhibits growth by half. Regarding `NC(=O)c1cc2c([nH]1)-c1ccncc1O[C@H]2C1CCOCC1` (single isomer, unassigned) [Example 72], the GI50 with MDA-MB-231 (semiquantitative) and in the experiment on SW620 (semiquantitative) was 10 to 100 µM in each case.

For `CCn1c(C(N)=O)cc2c1-c1ccncc1OC2(C)C` [Example 43], the “effect on cell cycle” value with SW620 cells [1] was “induced G2M arrest and apoptosis”. In addition, the EC50 on intracellular CDK8 (quantitative) was found to be 0.0015 µM; with SW620 cells [2] (Homo sapiens, SW-620, 264 h, read-out: mean EC50, colony forming assay), 0.051 ± 0.069 µM. Further, in the experiment on SW620 cells [2], the “effect in colony forming assay” value is “dose-dependent effect”. The GI50 in the experiment with MDA-MB-231 (quantitative) was found to be 3.5 µM; with SW620 (quantitative), 3.39 µM.

As for `CC1(C)Oc2cnccc2-c2c1cc(C(N)=O)n2CCF` [Example 52], the EC50 at intracellular CDK8 (semiquantitative) was below 0.5 µM. Also, the GI50 with MDA-MB-231 (semiquantitative) and with SW620 (semiquantitative) was 1 to 10 µM in each case.

As for `CCn1c(C(N)=O)c(-c2ccccc2OC)c2c1-c1ccncc1OC2(C)C` [Example 68], the EC50 at intracellular CDK8 (semiquantitative) was below 0.5 µM. For the same compound, the GI50 with MDA-MB-231 (semiquantitative) and in the experiment on SW620 (semiquantitative) was 10 to 100 µM throughout.
